Measurements reported in US20070003481A1, “Method and composition to individualize Levodopa/Carbidopa therapy using a breath test” (priority 2005, published 2007).

Legend:
[1] = 50 mg oral CD; serum CD time course; good/rapid (N=4) and poor/slow (N=5) absorbers; cited from earlier work
[2] = molecular target: T1, dopamine decarboxylase (DDC) (Homo sapiens, UniProt P20711); experiment: 13CO2 breath test after 13C-labeled LD, with CD pretreatment or simultaneous CD; type: in vivo
T1 construct: from tissue; host or cells: peripheral tissues of living human subjects (liver, kidney, gastrointestinal tract, capillary endothelium)
T1 sequence (P20711 1-480): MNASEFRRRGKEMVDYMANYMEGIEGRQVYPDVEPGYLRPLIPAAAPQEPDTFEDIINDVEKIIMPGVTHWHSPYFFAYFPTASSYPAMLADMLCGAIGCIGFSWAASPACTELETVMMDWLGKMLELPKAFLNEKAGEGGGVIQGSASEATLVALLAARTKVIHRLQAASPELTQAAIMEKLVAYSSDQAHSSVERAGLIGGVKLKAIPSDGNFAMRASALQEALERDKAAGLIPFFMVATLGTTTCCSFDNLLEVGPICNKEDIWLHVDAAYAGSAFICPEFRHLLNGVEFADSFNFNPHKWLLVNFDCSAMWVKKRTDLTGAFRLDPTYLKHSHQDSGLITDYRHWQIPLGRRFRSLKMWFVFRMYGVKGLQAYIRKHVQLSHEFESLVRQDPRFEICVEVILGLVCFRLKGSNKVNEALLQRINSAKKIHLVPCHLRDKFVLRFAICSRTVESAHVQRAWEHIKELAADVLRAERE
Protocol: ^13CO2 and ^12CO2 in exhaled breath samples is measured by IR spectrometry using the UBiT-IR300 (Meretek Diagnostics, Lafayette, CO; ^13CO2 urea breath analyzer instruction manual. Lafayette, CO: Meretek Diagnostics; 2002; A1-A2)^12 The amount of ^13CO2 present in breath samples is expressed as delta over baseline (DOB) that represents a change in the ^13CO2/^12CO2 ratio of breath samples collected before and after ^13C-labeled DDC enzyme substrate ingestion, e.g., ^13C-labeled LD. [formula]
The amount of ^13C-labeled DDC substrate absorbed and released into the breath as ^13CO2 is determined for each time point using the equation described by Amarri (Amarri et al., Clin Nutr. 14:149-54 (1995)).
The PDR is calculated using the formula: [formula] where ^13δ=[RS/RPDB)−1]×10^3 Rs=^13C:^12C in the sample RPDB=^13C:^12C in PDB (international standard PeeDeeBelemnite)=0.0112372) P is the atom % excess n is the number of labeled carbon positions δt, δ+1, δ0 are enrichments at times t, t+1 and predose respectively C is the CO2 production rate (C=300 [mmol/h]*BSA BSA=w^0.5378*h^0.3963*0.024265 (Body Surface Area) w: Weight (kg) h: Height (cm) Cmax is the highest value of DOB from the breath curve following ^13C-labeled DDC substrate. In one embodiment of the method, the ^13C-labeled DDC substrate is ^13C-labeled LD.
The present studies employed the ^13CO2 breath test method of the present invention to determine the optimal dose of CD required to optimally suppress peripheral metabolism of ^13C-labeled LD in individual subjects (i.e., Vlt 1 and Vlt 2). Briefly, a pre-breath test sample was collected in normal human subjects after overnight fasting (12 h) in a 1.3 L aluminum bag (Otsuka Pharmaceutical Co., Ltd., Tokyo, Japan). Briefly, normal human subjects ingested varying dosages (e.g., 25 mg-200 mg CD) 1 h prior to administration of 100 mg ^13C-labeled LD on three successive days. Breath samples were collected at specified intervals following administration of ^13C-labeled LD to determine peripheral metabolic decarboxylation of the drug. That is, breath samples were collected at 5 minutes intervals for 40 minutes, at 10 minutes intervals to 90 minutes and 120 minutes. Metabolism of ^13C-labeled LD in the absence of CD administration served as control. The results of these studies are summarized FIGS. 5-8. There is a dose response to the inhibition of peripheral DDC enzyme activity by the inhibitor CD.
The present studies examined the effect of CD preadministration on peripheral LD metabolism in human subjects. Briefly, normal human subjects ingested varying dosages (e.g., 25 mg-200 mg CD) either simultaneously, or up to 2 h prior to administration of ^13C-labeled LD. Breath samples were collected at specified intervals following administration of ^13C-labeled LD to determine peripheral metabolic decarboxylation of the ^13C-labeled LD. Metabolism of ^13C-labeled LD in the absence of CD administration served as control. The results of these studies are summarized below in Table 1 as well as FIGS. 9-14.
In Table 1, figures in parenthesis are percent inhibition of DDC by CD. The delta over baseline of ^13CO2 is designated as DOB. The percentage of LD dose recovered as ^13CO2 is designated as PDR. The peak breath concentration of ^13CO2 is designated as Cmax.
Breath samples are collected at 5 min time points up to 40 min and at 10 min intervals to 90 min and at 120 min after ingestion of ^13C-labeled LD. The breath samples are collected by having the subject momentarily holding their breath for 3 seconds prior to exhaling into a sample collection bag. The breath samples are analyzed on a UBiT IR-300 spectrophotometer (Meretek, Denver, Colo.) to determine the ^13CO2/^12CO2 ratio in expired breath, or sent to a reference lab. Optionally, varying doses (10-400 mg) of CD are orally administered to the subject (10 min-6 h) prior to administration of the ^13C-labeleld LD.

[3] = molecular target: T2, peripheral DDC (Homo sapiens, UniProt P20711); conditions: CD doses used in current clinical practice; cited from earlier work
T2 construct: host or cells: human subjects in vivo (cited study)
T2 sequence (P20711 1-480): T1 sequence (P20711 1-480)

[4] = subject Vlt 1, CD 25 mg 1 h prior to LD
[5] = subject Vlt 1, CD 25 mg simultaneous with LD
[6] = subject Vlt 1, CD 50 mg 1 h prior to LD
[7] = subject Vlt 1, CD 50 mg simultaneous with LD
[8] = subject Vlt 1, CD 100 mg 1 h prior to LD
[9] = subject Vlt 1, CD 100 mg simultaneous with LD
[10] = subject Vlt 2, CD 50 mg 1 h prior to LD
[11] = subject Vlt 2, CD 50 mg simultaneous with LD
[12] = subject Vlt 2, CD 100 mg 1 h prior to LD
[13] = subject Vlt 2, CD 100 mg simultaneous with LD
[14] = subject Vlt 2, CD 200 mg 1 h prior to LD
[15] = subject Vlt 2, CD 200 mg simultaneous with LD

C[C@@](Cc1ccc(O)c(O)c1)(NN)C(=O)O [CD, (−)-L-a-hydrazino-a-methyl-b-(3,4-dihydroxybenzene) propanoic acid monohydrate]
absorption of CD among human subjects [1]: variable
suppression of peripheral decarboxylation, simultaneous ingestion of CD/LD ([2]; 25 mg or 50 mg dose of CD and 100 mg of LD, simultaneous): did not completely suppress
suppression of DDC, CD administered 1 h prior to LD dose ([2]; Vlt 1 and Vlt 2): maximal suppression
inhibition of peripheral DDC enzyme activity, dependence on CD dose ([2]; Vlt 1 and Vlt 2, 25 mg-200 mg CD 1 h prior to 100 mg 13C-labeled LD): dose response
level of peripheral metabolism of 13C-labeled LD, CD 1 h prior versus 2 h prior to LD ([2]; human subject): no significant difference
inhibition of peripheral metabolism of 13C-labeled LD, CD prior (1 h or 2 h) compared to simultaneous ([2]; normal human subjects): greater
peripheral metabolism of 13C-labeled LD versus control level ([2]; normal human subjects, all concentrations of CD tested): significantly inhibited
DOB20: DOB value at 20 minutes after administration of 13C-labeled LD [2, 4]: 25.8
PDR40: PDR value at 40 minutes after administration of 13C-labeled LD [2, 4]: 12.7%
percent inhibition of DDC by CD (Cmax) [2, 4]: 54%
percent inhibition of DDC by CD (DOB20) [2, 4]: 43%
percent inhibition of DDC by CD (PDR40) [2, 4]: 57%
DOB20: DOB value at 20 minutes after administration of 13C-labeled LD [2, 5]: 35.6
PDR40: PDR value at 40 minutes after administration of 13C-labeled LD [2, 5]: 18.7%
percent inhibition of DDC by CD (Cmax) [2, 5]: 20%
percent inhibition of DDC by CD (DOB20) [2, 5]: 22%
percent inhibition of DDC by CD (PDR40) [2, 5]: 37%
DOB20: DOB value at 20 minutes after administration of 13C-labeled LD [2, 6]: 6.8
PDR40: PDR value at 40 minutes after administration of 13C-labeled LD [2, 6]: 3.6%
percent inhibition of DDC by CD (Cmax) [2, 6]: 88%
percent inhibition of DDC by CD (DOB20) [2, 6]: 85%
percent inhibition of DDC by CD (PDR40) [2, 6]: 88%
DOB20: DOB value at 20 minutes after administration of 13C-labeled LD [2, 7]: 25.5
PDR40: PDR value at 40 minutes after administration of 13C-labeled LD [2, 7]: 11.7%
percent inhibition of DDC by CD (Cmax) [2, 7]: 57%
percent inhibition of DDC by CD (PDR40) [2, 7]: 61%
DOB20: DOB value at 20 minutes after administration of 13C-labeled LD [2, 8]: 10.6
PDR40: PDR value at 40 minutes after administration of 13C-labeled LD [2, 8]: 5.3%
percent inhibition of DDC by CD (Cmax) [2, 8]: 82%
percent inhibition of DDC by CD (DOB20) [2, 8]: 77%
percent inhibition of DDC by CD (PDR40) [2, 8]: 82%
DOB20: DOB value at 20 minutes after administration of 13C-labeled LD [2, 9]: 16.5
PDR40: PDR value at 40 minutes after administration of 13C-labeled LD [2, 9]: 9.1%
percent inhibition of DDC by CD (Cmax) [2, 9]: 70%
percent inhibition of DDC by CD (DOB20) [2, 9]: 64%
percent inhibition of DDC by CD (PDR40) [2, 9]: 69%
DOB20: DOB value at 20 minutes after administration of 13C-labeled LD [2, 10]: 12.6
PDR40: PDR value at 40 minutes after administration of 13C-labeled LD [2, 10]: 8.3%
percent inhibition of DDC by CD (Cmax) [2, 10]: 48%
percent inhibition of DDC by CD (DOB20) [2, 10]: 66%
percent inhibition of DDC by CD (PDR40) [2, 10]: 56%
DOB20: DOB value at 20 minutes after administration of 13C-labeled LD [2, 11]: 15.4
PDR40: PDR value at 40 minutes after administration of 13C-labeled LD [2, 11]: 11.0%
percent inhibition of DDC by CD (Cmax) [2, 11]: 32%
percent inhibition of DDC by CD (DOB20) [2, 11]: 58%
percent inhibition of DDC by CD (PDR40) [2, 11]: 41%
DOB20: DOB value at 20 minutes after administration of 13C-labeled LD [2, 12]: 13.5
PDR40: PDR value at 40 minutes after administration of 13C-labeled LD [2, 12]: 7.8%
percent inhibition of DDC by CD (Cmax) [2, 12]: 63%
percent inhibition of DDC by CD (DOB20) [2, 12]: 63%
percent inhibition of DDC by CD (PDR40) [2, 12]: 59%
DOB20: DOB value at 20 minutes after administration of 13C-labeled LD [2, 13]: 26.7
PDR40: PDR value at 40 minutes after administration of 13C-labeled LD [2, 13]: 14.1%
percent inhibition of DDC by CD (Cmax) [2, 13]: 27%
percent inhibition of DDC by CD (DOB20) [2, 13]: 27%
percent inhibition of DDC by CD (PDR40) [2, 13]: 25%
DOB20: DOB value at 20 minutes after administration of 13C-labeled LD [2, 14]: 8.8
PDR40: PDR value at 40 minutes after administration of 13C-labeled LD [2, 14]: 5.7%
percent inhibition of DDC by CD (Cmax) [2, 14]: 75%
percent inhibition of DDC by CD (DOB20) [2, 14]: 76%
percent inhibition of DDC by CD (PDR40) [2, 14]: 70%
DOB20: DOB value at 20 minutes after administration of 13C-labeled LD [2, 15]: 20.5
PDR40: PDR value at 40 minutes after administration of 13C-labeled LD [2, 15]: 12.0%
percent inhibition of DDC by CD (Cmax) [2, 15]: 44%
percent inhibition of DDC by CD (PDR40) [2, 15]: 36%
saturation of peripheral DDC activity [3]: not saturated
